Test results from patent publication US8008542B2, “Compositions, cells, and plants that include BKI1, a negative regulator of BRI1-mediated BR signaling” (The Salk Institute for Biological Studies, priority 2007, dated 2011).

Key:
BES1 = BES1 phosphorylation status by immunoblot with anti-BES1; assay type: in vivo, Arabidopsis
Method: To determine whether the growth inhibitory effect caused by the over-expression of BKI1-YFP was due to an inhibition of BRI1 signaling, we tested the phosphorylation status of a downstream biochemical marker, BES1 (10), by immunoblot analysis.
Seedlings were grown in short day photoperiods for seven days. At least ten short-day grown seedlings were measured. In FIGS. 2A-B the pBKI1::GUS line was used as a control (control). RNAi-2 and RNAi-7 were two independent RNAi knockdown lines for BKI1. In FIG. 2 C-E, phenotype of plants overexpressing BKI1-FLAG, with Col-0 (left) and a BKI1-FLAG line (right) are shown. 2C. Short-day grown seedlings. 2D. Long-day grown seedlings. 2E. Long-day grown adult plants. In FIG. 2F, leaf morphology of seedlings grown in short days. Col-0 (right) and a BKI1-FLAG line (left) are shown. In FIG. 2G, over-expression of BKI1-YFP leads to a reduced response (hypocotyl length) to BL. At least twenty short-day grown seedlings were measured. In FIG. 2H, over-expression of BKI1-YFP leads to an enhanced response to BRZ220. At least twenty dark-grown seedlings were measured. In FIG. 2I, over-expression of BKI1-YFP results in reduced accumulation of dephosphorylated BES1. Immunoblots with anti-BES1 show levels of phosphorylated BES1 (pBES1) and dephosphorylated BES1. Bottom band: loading control. In FIG. 2J, Over-expression of BKI1-YFP alters the expression of BR-regulated genes. […]

DWF4 = assay: qRT-PCR of brassinosteroid-regulated gene DWF4; assay type: in vivo, Arabidopsis; details: 100 nM BL for 2.5 hrs
Method: (§1) Plants were treated with 100 nM BL, or a mock treatment for 2.5 hrs. Total RNA was extracted using a Qiagen RNAeasy kit (Valencia, Calif.), and the first strand cDNA was synthesized using Invitrogen Superscript III First-Strand cDNA Synthesis kit. cDNAs were combined with SYBR master mix for PCR. Primers for each gene are shown as follows. CPD (At5g05690): 5′-TTACCGCAAAGCCATCCAA-3′ (SEQ ID NO:10) and 5′-[…]-3′ (SEQ ID NO:11); DWF4 (At3g50660): 5′-[…]-3′ (SEQ ID NO:12) and 5′-[…]-3′ (SEQ ID NO:13); Saur-AC1 (At4g38850): 5′-[…]-3′ (SEQ ID NO:14) and 5′-[…]-3′ (SEQ ID NO:15); and BKI1: 5′-GCTCCGGCGTCGATGA-3′ (SEQ ID NO:16) and 5′-[…]-3′ (SEQ ID NO:17). A U-box gene (At5g15400) was used to normalize the data (5′-[…]-3′ (SEQ ID NO:18) and 5′-TGCTGCCCAACATCAGGTT-3′ (SEQ ID NO:19)). PCR reactions were performed in triplicate or quadruplicate with a Bio-Rad iCycler, and the data were collected and analyzed with Bio-Rad MyiQ Single-Color Real-Time PCR Detection System.

Arabidopsis seedlings = assay: Hypocotyl length response to BL, short-day grown seedlings; assay type: in vivo
[1] = system: plasma membrane-association of BKI1-YFP; assay: Subcellular localization of BKI1-YFP in root tip cells (confocal); assay type: cell-based, Arabidopsis; details: for plasma membrane-association of BKI1-YFP following BL treatment: wild-type background, grown on 1 μM BRZ220, treated with 1 μM BL
Method: To investigate where in the pathway BKI1 acts, we examined the subcellular localization of the BKI1-YFP fusion protein in plants. BKI1-YFP was localized to both the plasma membrane and the cytosol in root tip cells (FIG. 3A). When the BKI1-YFP line was grown on medium containing 1 μM BRZ220, which reduces the levels of endogenous brassinosteroids (22), the fluorescent signal on the cell surface was enhanced (FIG. 3B).
In FIG. 3A, BKI1-YFP is localized to the plasma membrane and cytosol on MS medium. In FIG. 3B, BRZ220 enhances the association of BKI1-YFP to the plasma membrane. Seedlings were grown on MS medium containing 1 μM BRZ220. In FIG. 3C, BL enhances BKI1-YFP dissociation from the plasma membrane. Seedlings were grown on MS medium containing 1 μM BL. […] Seedlings were grown on MS medium containing 1 μM of BRZ220 and treated with 1 μM BL. J-L. BKI1-YFP is associated with the plasma membrane in bri1-116. Seedlings were grown on MS medium containing 1 μM of BRZ220. bri1-116 is a null allele of BRI1 (19). […] Seedlings were grown on MS medium containing 1 μM BL. […] Seedlings were grown on MS medium containing 1 μM BRZ220. 3D, G, J, M, and P are untreated; E, H, K, N, and Q are treated with BL for 5 min, and F, I, L, O, and R are treated with BL for 10 min.
Seedlings were grown on MS medium containing 1 μM of BRZ220. The time of BL treatment is indicated. Top panels: BKI1-YFP; Lower panels: myriBKI1-YFP. […] Immunoblots with anti-GFP show levels of myriBKI1-YFP and BKI1-YFP. Bottom band: loading control. […] The total ^35S-Met labeled BRI1-KD-HIS co-precipitated by GST-BAK1-KD was defined as “1”. Five replicates were conducted. Error bars indicate standard error. 1, GST-BAK1-KD±35S-BRI1-KD-HIS; 2, GST-BAK1-KD+35S-BRI1-KD-HIS+10 μM of MBP; 3, GST-BAK1-KD+35S-BRI1-KD-HIS+10 μM of MBP-BKI1. […] Without BL, BRI1 kinase is kept in a basal state by both its own carboxyl terminal domain and by an interaction with BKI1. Brassinosteroid binding to the extracellular domain of BRI1 induces a conformational change of the kinase domain, leading to the phosphorylation of the C-terminal domain of BRI1 and BKI1, the dissociation of BKI1 from the plasma membrane, and the release of autoinhibition of BRI1. These events lead to the full activation of BRI1 and its association with BAK1 or other substrates. Plasma membrane-dissociated BKI1 may also regulate other unknown components in the brassinosteroid signaling cascade. BSU1 is a nuclear serine/threonine phosphatase involved in the dephosphorylation of BES1 (27).
The predicted full-length BKI1 was amplified by RT-PCR from total RNA of Col-0 using Pfu DNA polymerase (Stratagene), and cloned into the binary vector pCHF3 that contains a 35S promoter (10), three copies of FLAG ([…], SEQ ID NO:8) fused at the Cterminal end, and the RubisCo small subunit (rbcS) terminator. For the YFP fusion construct, full length BKI1 was cloned into a modified pCHF3 containing a 35S promoter and a C-terminal YFP tag. For the myriBKI1-YFP construct, a myristoylation site (MGICMSR, SEQ ID NO:9) was added to the N-terminus of BKI1-YFP via PCR. All constructs were confirmed by sequencing and transformed into Col-0 plants. The subcellular localization of BKI1-YFP and myriBKI1-YFP was visualized and photographed using a Leica TCS SP2 confocal microscope (Leica Microsystems, Germany).

CPD = assay: qRT-PCR of brassinosteroid-regulated gene CPD; assay type: in vivo, Arabidopsis; details: 100 nM BL for 2.5 hrs
Method: as §1

Saur-AC1 = assay: qRT-PCR of brassinosteroid-regulated gene Saur-AC1; assay type: in vivo, Arabidopsis; details: Plus BL (100 nM, 2.5 hrs)
Method: as §1

[2] = biological target: T1, kinase domain of BAK1 (BAK1-KD) in pDBLeu (GAL4-DB fusion) (UniProt P04386 1-147; Q94F62 247-615, limits assumed); assay: yeast two-hybrid
T1 construct: domain: GAL4-DB;domain: kinase domain; Yeast two-hybrid bait

[3] = biological target: T2, BRL3 kinase domain (BRL3-KD) fused with GAL4-DB (in pDBLeu) (UniProt P04386 1-147; Q9LJF3 794-1164, limits assumed); assay: yeast two-hybrid
T2 construct: domain: GAL4-DB;domain: kinase domain; Yeast two-hybrid bait

[4] = biological target: full-length BIN2 in pDBLeu (GAL4-DB fusion) (UniProt P04386 1-147; Q39011 1-380); assay: yeast two-hybrid
[5] = biological target: T3, BRL1 kinase domain (BRL1-KD) fused with GAL4-DB (in pDBLeu) (UniProt P04386 1-147; Q9ZWC8 798-1166, limits assumed); assay: yeast two-hybrid
T3 construct: domain: GAL4-DB;domain: kinase domain; Yeast two-hybrid bait

[6] = biological target: T4, CLV1 kinase domain (CLV1-KD) fused with GAL4-DB (in pDBLeu) (UniProt P04386 1-147; Q9SYQ8 660-980, limits assumed); assay: yeast two-hybrid
T4 construct: domain: GAL4-DB;domain: kinase domain; Yeast two-hybrid bait

[7] = biological target: T5, kinase domain of NIK1 (NIK1-KD) in pDBLeu (GAL4-DB fusion) (UniProt P04386 1-147; Q9LFS4 270-638, limits assumed); assay: yeast two-hybrid
T5 construct: domain: GAL4-DB;domain: kinase domain; Yeast two-hybrid bait

[8] = biological target: full length TTL in pDBLeu (GAL4-DB fusion) (Arabidopsis, UniProt P04386 1-147; Q9LVM5 1-324, limits assumed); assay: yeast two-hybrid

`CC(C)[C@H](C)[C@@H](O)[C@H](O)[C@@H](C)[C@H]1CC[C@H]2[C@@H]3COC(=O)[C@H]4C[C@H](O)[C@H](O)C[C@]4(C)[C@H]3CC[C@]12C` [BL, brassinolide] was tested, and the “accumulation of dephosphorylated BES1” value (BES1; det2-1, 0.1 μM BL for one hour) was “strongly stimulated”, the “accumulation of dephosphorylated BES1” value (BES1; wild type, 0.1 μM BL for one hour) was “strongly stimulated” and the “expression of DWF4 (RNA level, WT without BL = 1.00)” value (DWF4; BKI1-YFP line) was 0.80±0.06. For the same molecule, the “expression of DWF4 (RNA level, WT without BL = 1.00)” value (DWF4; WT) was 0.27±0.01, the “response to BL treatment (hypocotyl length)” value (Arabidopsis seedlings; det2-1 brassinosteroid biosynthetic mutant) was “highly responsive” and the “sensitivity to BL applications compared to wild type (fold less sensitive)” value (Arabidopsis seedlings; plants over-expressing BKI1-YFP, hypocotyl length) was “at least 100 fold”. For the same molecule, the “BL-induced dissociation of BKI1-YFP from the plasma membrane” value ([1]; bri1-104 (kinase inactive allele)) was “no BL-induced dissociation”, the “BL-induced dissociation of BKI1-YFP from the plasma membrane” value ([1]; bri1-116 homozygous seedlings (null allele)) was “failed to induce the dissociation” and the “plasma membrane-association of BKI1-YFP” value ([1]; grown on medium containing 1 μM BL) was “reduced”. The “plasma membrane-association of BKI1-YFP following BL treatment” value ([1]; 10 minutes) was “undetectable”, the “plasma membrane-association of BKI1-YFP following BL treatment” value ([1]; after 5 minutes) was “almost completely gone” and the “expression of CPD (RNA level, WT without BL = 1.00)” value (CPD; BKI1-YFP line) was 0.83±0.05. For the same molecule, the “expression of CPD (RNA level, WT without BL = 1.00)” value (CPD; WT) was 0.47±0.03, the “expression of Saur-AC1 (RNA level, WT without BL = 1.00)” value (Saur-AC1; BKI1-YFP line) was 1.65±0.11 and the “expression of Saur-AC1 (RNA level, WT without BL = 1.00)” value (Saur-AC1; WT) was 4.68±0.31.

B1: BKI1 fused with GAL4-AD (BKI1-pEXAD502), full-length BKI1 (other, not shown: large carriers)
chain: METNLQQVKNSSQTFSEKQNPKQEASPSPISSTCSSPSHDFSFTISLQPLSSSSKHISPTLRSPSKTTSSYQQTDPFAVDLSPADEIFFHGHLLPLHLLSHLPVSPRTSTGSYNDGFTLPVKDILPDQPTNNNNNTENAITNISTEAKDDNTEDKAEGEIRVKTKPIKSFSLFGLSKWRKGFESNEREQEQQQQKIKKPMSLDLSHAVKKYIRMLFQKRGNGTQFWNRRQTSSYSFSSSLMGPNGNSKTMINGSYNKRDLIRGRRGELFSAPASMRTSPTNSGHLRVSTAGLSSSSGSTSSSSSDSTMEELQAAIQAAIAHCKNSSAVDRDDKVKDS
notes: Yeast two-hybrid prey; it is put N-terminal here; also called BKI1-FL; At5g42750
B1: no binding [2]; no binding [3]; no binding [4]. B1: no binding [5]; no binding [6]; no binding [7]. B1: no binding [8].
